Assay results from patent US20230165865A1, “HETEROARYLDIHYDROPYRIMIDINE DERIVATIVES AND METHODS OF TREATING HEPATITIS B INFECTIONS” (Janssen Pharmaceutica NV, priority 2018, published 2023).
Where two headings read alike, the source gives them in different places.

Tests used:
[1] = tested on: HBV; experiment: Anti-viral assay in HepG2.2.15 cells: anti-HBV activity, HBV DNA in culture medium by qPCR; assay type: cell-based; details: HepG2.2.15 cells, 6 days treatment, HBV DNA by qPCR, read-out: EC50
Description: (§1) HepG2.2.15 (the HepG2.2.15 cell line can be produced by transfection of the HepG2 cell line as described in Sells, Chen, and Acs 1987 (Proc. Natl. Acad. Sci. USA 84: 1005-1009), and the HepG2 cell line is available from ATCC® under number HB-8065™)
(§2) HepG2.2.15 cells were plated into 96-well plate in 2% FBS culture medium at the density of 40,000 cells/well and 5,000cells/well for HBV inhibitory activity and cytotoxicity determination, respectively. After incubation at 37° C., 5% CO2 overnight, cells were treated with medium containing compounds for 6 days with medium and compounds refreshed after 3 days of treatment. Each compound was tested in a 1:3 serial dilutions at 8 different concentrations in triplicate. The highest concentration of the compounds was 10 uM or 1 uM for anti-HBV activity assay and 100 uM for cytotoxicity determination.
The change of HBV DNA level induced by the compounds was assessed by quantitative real-time polymerase chain reaction (qPCR). Briefly, the HBV DNA in the culture medium was extracted using QIAamp 96 DNA Blood Kit according to the manual and then quantified by real-time PCR assay using the primers and probe in the table 1 below.
(§3) EC50 and CC50 values are calculated by the […] PRISM software.

[2] = Cytotoxicity determination in HepG2.2.15 cells (CCK-8 assay); assay type: cell-based; details: human, 6 days treatment, CCK-8, highest concentration 100 uM
Description: as §1, §2
Cell viability was determined by CCK-8 assay. After 6 days of compounds treatment, 20 μl CCK-8 reagents were added to each well of cytotoxicity assay plates. Cell plates were incubated at 37° C., 5% CO2 for 2.5 h. The absorbance at 450 nm wavelength and the absorbance at 630 nm wavelength as reference was measured.
as §3

[3] = Hepatitis B virus, HepG2.2.15, 144 h

SMILES: [2H][C@@]1(c2cccc(F)c2C)N=C(c2nccs2)NC(CN2CCN3C(=S)N(CC(C)(C)C(=O)O)C[C@@H]3C2)=C1C(=O)OCC (single isomer, unassigned) [Compound 36B, 3-(7-((6-Deutero-5-(ethoxycarbonyl)-6-(3-fluoro-2-methylphenyl)-2-(thiazol-2-yl)-3,6-dihydropyrimidin-4-yl)methyl)-3-thioxohexahydroimidazo[1,5-a]pyrazin-2(3H)-yl)-2,2-dimethylpropanoic acid]
- EC50 [1, 3]: 2.6 nM
- CC50 at 6 days [2]: 23000 nM

SMILES: CCOC(=O)C1=C(CN2CCN3C(=S)N(C(C)(C)CC(=O)O)CC3C2)NC(c2nccs2)=N[C@H]1c1cccc(F)c1C (single isomer, unassigned) [Compound 30A]
- EC50 [1, 3]: 5 nM
- CC50 at 6 days [2]: 8600 nM

SMILES: CCOC(=O)C1=C(CN2CCN3C(=S)N(CC(C)(C)C(=O)O)C[C@@H]3C2)NC(c2ncoc2C)=N[C@H]1c1ccc(F)cc1Cl (single isomer, unassigned) [Compound 33A, 3-(7-((6-(2-Chloro-4-fluorophenyl)-5-(ethoxycarbonyl)-2-(5-methyloxazol-4-yl)-3,6-dihydropyrimidin-4-yl)methyl)-3-thioxohexahydroimidazo[1,5-a]pyrazin-2(3H)-yl)-2,2-dimethylpropanoic acid]
- EC50 [1, 3]: 12 nM
- CC50 at 6 days [2]: 37800 nM

SMILES: CCOC(=O)C1=C(CN2CCN3C(=S)N(CC(C)(C)C(=O)O)CC3C2)NC(c2nccs2)=NC1c1ccc(F)c(F)c1Cl (single isomer, unassigned) [Compound 14A, 3-(7-((6-(2-Chloro-3,4-difluorophenyl)-5-(ethoxycarbonyl)-2-(thiazol-2-yl)-3,6-dihydropyrimidin-4-yl)methyl)-3-thioxohexahydroimidazo[1,5-a]pyrazin-2(3H)-yl)-2,2-dimethylpropanoic acid]
- EC50 [1, 3]: 1.2 nM
- CC50 at 6 days [2]: 9600 nM

SMILES: CCOC(=O)C1=C(CN2CCN3C(=S)N(CC(CC)C(=O)O)CC3C2)NC(c2nccs2)=N[C@H]1c1cccc(F)c1C (stereo partly drawn) [Compound 17, 2-((7-(((S)-5-(ethoxycarbonyl)-6-(3-fluoro-2-methylphenyl)-2-(thiazol-2-yl)-3,6-dihydropyrimidin-4-yl)methyl)-3-thioxohexahydroimidazo[1,5-a]pyrazin-2(3H)-yl)methyl)butanoic acid]
- EC50 [1, 3]: 5.6 nM
- CC50 at 6 days [2]: 13200 nM

SMILES: COC(=O)C1=C(CN2CCN3C(=S)N(CC(C)(C)C(=O)O)CC3C2)NC(c2nccs2)=NC1c1cccc(F)c1C (single isomer, unassigned) [Compound 10B, 3-(-7-((6-(3-Fluoro-2-methylphenyl)-5-(methoxycarbonyl)-2-(thiazol-2-yl)-3,6-dihydropyrimidin-4-yl)methyl)-3-thioxohexahydroimidazo[1,5-a]pyrazin-2(3H)-yl)-2,2-dimethylpropanoic acid]
- EC50 [1, 3]: 2.9 nM
- CC50 at 6 days [2]: 23200 nM

SMILES: CCOC(=O)C1=C(CN2CCN3C(=S)N(CC(C)(C)C(=O)O)C[C@@H]3C2)NC(c2nccs2)=N[C@@H]1c1ccc(F)c(F)c1C (single isomer, unassigned) [Compound 15A, 3-(7-((6-(3,4-Difluoro-2-methylphenyl)-5-(ethoxycarbonyl)-2-(thiazol-2-yl)-3,6-dihydropyrimidin-4-yl)methyl)-3-thioxohexahydroimidazo[1,5-a]pyrazin-2(3H)-yl)-2,2-dimethylpropanoic acid]
- EC50 [1, 3]: 4.6 nM
- CC50 at 6 days [2]: 25600 nM

SMILES: CCOC(=O)C1=C(CN2CCN3C(=S)N(c4ccc(C(=O)O)cc4)CC3C2)NC(c2nccs2)=N[C@H]1c1cccc(F)c1C (stereo in doubt) [Compound 23, 4-(7-((5-(ethoxycarbonyl)-6-(3-fluoro-2-methylphenyl)-2-(thiazol-2-yl)-3,6-dihydropyrimidin-4-yl)methyl)-3-thioxohexahydroimidazo[1,5-a]pyrazin-2(3H)-yl)benzoic acid]
- EC50 [1, 3]: 4.6 nM
- CC50 at 6 days [2]: 2600 nM

SMILES: CCOC(=O)C1=C(CN2CCN3C(=S)N(CC4(C(=O)O)CC4)C[C@@H]3C2)NC(c2nccs2)=N[C@H]1c1cccc(F)c1Cl (single isomer, unassigned) [Compound 18B, 1-((7-((6-(2-chloro-3-fluorophenyl)-5-(ethoxycarbonyl)-2-(thiazol-2-yl)-3,6-dihydropyrimidin-4-yl)methyl)-3-thioxohexahydroimidazo[1,5-a]pyrazin-2(3H)-yl)methyl)cyclopropane-1-carboxylic acid]
- EC50 [1, 3]: 1.5 nM
- CC50 at 6 days [2]: 13000 nM

SMILES: CCOC(=O)C1=C(CN2CCN3C(=S)N(CC(C)(C)C(=O)O)CC[C@@H]3C2)NC(c2nccs2)=N[C@H]1c1cccc(F)c1C [Compound 6A, 3-((R)-2-(((S)-5-(ethoxycarbonyl)-6-(3-fluoro-2-methylphenyl)-2-(thiazol-2-yl)-3,6-dihydropyrimidin-4-yl)methyl)-6-thioxohexahydro-2H-pyrazino[1,2-c]pyrimidin-7(6H)-yl)-2,2-dimethylpropanoic acid]
- EC50 [1, 3]: 19.4 nM
- CC50 at 6 days [2]: 11400 nM

SMILES: COC(=O)C1=C(CN2CCN3C(=S)N(CC(C)(C)C(=O)O)CC3C2)NC(c2nccs2)=NC1c1ccc(F)c(F)c1C (single isomer, unassigned) [Compound 12B, 3-(7-((6-(3,4-Difluoro-2-methylphenyl)-5-(methoxycarbonyl)-2-(thiazol-2-yl)-3,6-dihydropyrimidin-4-yl)methyl)-3-thioxohexahydroimidazo[1,5-a]pyrazin-2(3H)-yl)-2,2-dimethylpropanoic acid]
- EC50 [1, 3]: 2 nM
- CC50 at 6 days [2]: 14500 nM

SMILES: CCOC(=O)C1=C(CN2CCN3C(=S)N(CC(C)(C)C(=O)O)CC[C@H]3C2)NC(c2nccs2)=N[C@H]1c1cccc(F)c1C [Compound 6, 3-((S)-2-(((S)-5-(ethoxycarbonyl)-6-(3-fluoro-2-methylphenyl)-2-(thiazol-2-yl)-3,6-dihydropyrimidin-4-yl)methyl)-6-thioxohexahydro-2H-pyrazino[1,2-c]pyrimidin-7(6H)-yl)-2,2-dimethylpropanoic acid]
- EC50 [1, 3]: 67 nM
- CC50 at 6 days [2]: 20500 nM

SMILES: CCOC(=O)C1=C(CN2CCN3C(=S)N(C)C[C@@H]3[C@H]2C(=O)O)NC(c2nccs2)=N[C@H]1c1cccc(F)c1Cl (relative stereo) [Compound 19A, (trans)-7-((6-(2-chloro-3-fluorophenyl)-5-(ethoxycarbonyl)-2-(thiazol-2-yl)-3,6-dihydropyrimidin-4-yl)methyl)-2-methyl-3-thioxooctahydro-imidazo[1,5-a]pyrazine-8-carboxylic acid]
- EC50 [1, 3]: 40.5 nM
- CC50 at 6 days [2]: 89900 nM

SMILES: CCOC(=O)C1=C(CN2CCN3C(=S)N(CC4(C(=O)O)CC4)CC3C2)NC(c2nccs2)=N[C@H]1c1cccc(F)c1C (single isomer, unassigned) [Compound 9A]
- EC50 [1]: 64 nM
- CC50 at 6 days [2]: 14900 nM

SMILES: CCOC(=O)C1=C(CN2CCN3C(=S)N(CC4(C(=O)O)CCC4)CC3C2)NC(c2nccs2)=N[C@H]1c1cccc(F)c1C (single isomer, unassigned) [Compound 29B]
- EC50 [1, 3]: 1.5 nM
- CC50 at 6 days [2]: 11200 nM

SMILES: CCOC(=O)C1=C(CN2CCN3C(=S)N(CC(C)(C)C(=O)O)CC3C2)NC(c2nccs2)=NC1c1ccc(F)cc1Br (single isomer, unassigned) [Compound 13A, 3-(7-((6-(2-Bromo-4-fluorophenyl)-5-(ethoxycarbonyl)-2-(thiazol-2-yl)-3,6-dihydropyrimidin-4-yl)methyl)-3-thioxohexahydroimidazo[1,5-a]pyrazin-2(3H)-yl)-2,2-dimethylpropanoic acid]
- EC50 [1, 3]: 1 nM
- CC50 at 6 days [2]: 14700 nM

SMILES: CCOC(=O)C1=C(CN2CCN3C(=S)N(CC(C)(C)C(=O)O)C[C@@H]3C2)NC(c2ncc(F)cc2F)=N[C@H]1c1cccc(F)c1C (single isomer, unassigned) [Compound 22A, 3-(7-((2-(3,5-difluoropyridin-2-yl)-5-(ethoxycarbonyl)-6-(3-fluoro-2-methylphenyl)-3,6-dihydropyrimidin-4-yl)methyl)-3-thioxohexahydroimidazo-[1,5-a]pyrazin-2(3H)-yl)-2,2-dimethylpropanoic acid]
- EC50 [1, 3]: 8.9 nM
- CC50 at 6 days [2]: 12800 nM

SMILES: COC(=O)C1=C(CN2CCN3C(=S)N(CC(C)(C)C(=O)O)C[C@@H]3C2)NC(c2nccs2)=N[C@@H]1c1ccc(F)cc1Br (single isomer, unassigned) [Compound 16A, 3-(7-((6-(2-Bromo-4-fluorophenyl)-5-(methoxycarbonyl)-2-(thiazol-2-yl)-3,6-dihydropyrimidin-4-yl)methyl)-3-thioxohexahydroimidazo[1,5-a]pyrazin-2(3H)-yl)-2,2-dimethylpropanoic acid]
- EC50 [1, 3]: 4.5 nM
- CC50 at 6 days [2]: 15300 nM

SMILES: CCOC(=O)C1=C(CN2CCN3C(=S)N([C@H]4CC[C@@H](C(=O)O)C4)CC3C2)NC(c2nccs2)=N[C@H]1c1cccc(F)c1C (single isomer, unassigned) [Compound 24C]
- EC50 [1]: 1.4 nM
- CC50 at 6 days [2]: 11600 nM
